What was measured:
[1] = system: anti-OVA-specific IgG1 subclass antibody; experiment: Adjuvant activity test: anti-OVA-specific IgG1 subclass antibody in serum of OVA-immunized mice (ELISA); assay type: in vivo, BALB/c mice; conditions: after secondary immunization, serum 2 weeks later; OVA 5 μg + compound 0.256 μmol in 5% αCD-added saline (Addavax mixed with saline at 1:1), dorsal-subcutaneous; compared to OVA single administration group
Procedure: (§1) 8-Week-old female BALB/c mice were divided into groups (N=6), and each group was primarily immunized by dorsal-subcutaneous administration of (1) ovalbumin (OVA) (5 μg) dissolved in saline as an antigen (OVA single administration group), (2) OVA 5 μg and Addavax™ (mixed with saline at 1:1) dissolved in saline (Addavax™ administration group) as positive control adjuvant, (3) OVA 5 μg and SZ137 0.256 μmol dissolved or dispersed in 5% α-cyclodextrin (hereinafter to be simply referred to as αCD)-added saline (SZ137 administration group), (4) OVA (5 μg) and SZ138 (0.256 μmol) dissolved or dispersed in 5% αCD-added saline (SZ138 administration group), (5) OVA (5 μg) and SZ142 (0.256 μmol) dissolved or dispersed in 5% αCD-added saline (SZ142 administration group), (6) OVA (5 μg) and SZ144 (0.256 μmol) dissolved or dispersed in 5% αCD-added saline (SZ144 administration group), (7) OVA (5 μg) and SZ145 (0.256 μmol) dissolved or dispersed in 5% αCD-added saline (SZ145 administration group), (8) OVA (5 μg) and SZ146 (0.256 μmol) dissolved or dispersed in 5% αCD-added saline (SZ146 administration group), (9) OVA (5 μg) and SZ147 (0.256 μmol) dissolved or dispersed in 5% αCD-added saline (SZ147 administration group), (10) OVA (5 μg) and SZ148 (0.256 μmol) dissolved or dispersed in 5% αCD-added saline (SZ148 administration group), each per mouse. Two week later, the secondary immunization was carried out by dorsal-subcutaneous administration of solutions or dispersions similar to those of the above-mentioned (1)-(10) again. Two weeks from the secondary immunization, the whole blood was extracted under anesthesia, and the obtained serum sample was measured for anti-OVA-specific IgG1 subclass antibody, anti-OVA-specific IgG2a subclass antibody, and anti-OVA-specific IgE antibody.
(§2) The measurement method of the anti-OVA-specific IgG1 subclass antibody and anti-OVA-specific IgG2a subclass antibody in Experimental Example 1 and the following Experimental Examples 2-10 is as follows.
(§3) To a 96 well plate was added 5 μg/ml OVA at 100 µl/well, and the mixture was incubated at 4° C. overnight. After incubation, the mixture was washed three times with 200 μl of PBS-T (PBS (phosphate buffered saline)+0.05% (v/v) Tween 20) per well, and blocked with 100 μl of 5% FCS (fetal calf serum)/PBS solution per well at room temperature for 1-2 hr. Thereafter, the mixture was washed three times with PBS-T (200 μl/well), a diluted serum sample (100 l/well) or the same amount of 5% FCS/PBS solution as a control was added, and the mixture was incubated at 37° C. for 1 hr. To calculate concentration of the antibody, the standard of an anti-OVA-specific IgG1 subclass antibody diluted with 2% FCS/PBS solution was added at 100 ng/ml, 50 ng/ml, 25 ng/ml, 12.5 ng/ml, 6.25 ng/ml, 3.125 ng/ml, 1.56 ng/ml, 0.781 ng/ml, 0.391 ng/ml, 0.195 ng/ml, 0.098 ng/ml, 0 ng/ml, per 1 well. When an anti-OVA-specific IgG2a subclass antibody was measured, the standard of an anti-OVA-specific IgG2a subclass antibody was added at 50 ng/ml, 25 ng/ml, 12.5 ng/ml, 6.25 ng/ml, 3.125 ng/ml, 1.56 ng/ml, 0.781 ng/ml, 0.391 ng/ml, 0.195 ng/ml, 0.098 ng/ml, 0.049 ng/ml, 0 ng/ml, per 1 well. Thereafter, similar to the samples, the mixture was washed five times with PBS-T (200 μl/well), a diluted biotinylated anti-mouse IgG1 antibody and IgG2a antibody were added (100 μl/well), and the mixture was incubated at 37° C. for 45 min. Thereafter, the mixture was washed five times with PBS-T (200 μl/well), a diluted anti-biotin-HRP antibody was added (100 μl/well), and the mixture was incubated at 37° C. for another 30 min. Thereafter, the mixture was washed five times with PBS-T (200 μl/well), TMB substrate solution was added (100 μl/well), and the mixture was incubated at room temperature for 10-15 min. Thereafter, a reaction quenching liquid (2N sulfuric acid solution) was added (50 l/well) to discontinue a color developing reaction, and the absorbance (OD Value=450 nm) was measured by a microplate reader. […]

[2] = system: anti-OVA-specific IgG2a subclass antibody; experiment: Adjuvant activity test: anti-OVA-specific IgG2a subclass antibody in serum of OVA-immunized mice (ELISA); assay type: in vivo, BALB/c mice; conditions: after secondary immunization, serum 2 weeks later; OVA 5 μg + compound 0.256 μmol in 5% αCD-added saline (Addavax mixed with saline at 1:1), dorsal-subcutaneous; compared to OVA single administration group
Procedure: as §1, §2, §3

| SMILES | anti-OVA-specific IgG1 subclass antibody production [1] | anti-OVA-specific IgG2a subclass antibody production [2] |
| --- | --- | --- |
| CCCCCCCCCCCCCCCCCCCCCC(=O)N[C@@H](CCCC)C(=O)NCCCCCCCCCCCC [SZ155, N-[(1S)-1-(dodecylcarbamoyl)pentyl]docosanamide] | showed a tendency to increase | showed a tendency to increase |
| CCCCCCCCCCCCCCCCCCCCCC(=O)N1CCC(C(=O)NCCCCCCCCCCCC)CC1 [SZ156, 1-docosanoyl-N-dodecyl-piperidine-4-carboxamide] | showed a tendency to increase | showed a tendency to increase |
| CCCCCCCCCCCCCCCCCCCCCC(=O)N[C@@H](CCCNC(=N)N)C(=O)N(CCCCCCC)CCCCCCC.Cl [SZ159, N-[(1S)-1-(diheptylcarbamoyl)-4-guanidino-butyl]docosanamide hydrochloride] | showed a tendency to increase | showed a tendency to increase |
| CCCCCCCCCCCCCCCCCCCCCC(=O)N[C@@H](CCCCN)C(=O)NCCCCCCCCCCCC.Cl [SZ160, N-[(1S)-5-amino-1-(dodecylcarbamoyl)pentyl]docosanamide hydrochloride] | showed a tendency to increase | showed a tendency to increase |
| CCCCCCCC/C=C/CCCCCCCC(=O)N[C@@H](CCCNC(=N)N)C(=O)NCCCCCCCCCCCC.Cl [SZ161, (E)-N-[(1S)-1-(dodecylcarbamoyl)-4-guanidino-butyl]octadeca-9-enamide hydrochloride] | significantly increased | significantly increased |
| CCCCCCCCCCCCCCCCCCCCCC(=O)N[C@@H](CCCNC(=N)N)C(=O)NCCCCCCC.Cl [SZ163, N-[(1S)-4-guanidino-1-(heptylcarbamoyl)butyl]docosanamide hydrochloride] | tended to increase | tended to increase |
| CCCCCCCCCCCCCCCCCCCCCC(=O)N[C@@H](CCCN)C(=O)NCCCCCCCCCCCC.Cl [SZ165, N-[(1S)-4-amino-1-(dodecylcarbamoyl)butyl]docosanamide hydrochloride] | tended to increase | tended to increase |
| CCCCCCCCCCCCCCCCCCCCCC(=O)N[C@@H](CCCCNC(=N)N)C(=O)NCCCCCCCCCCCC.Cl [SZ166, N-[(1S)-1-(dodecylcarbamoyl)-5-guanidino-pentyl]docosanamide hydrochloride] | tended to increase | tended to increase |
| CCCCCCCCCCCCCCCCCCCCCC(=O)N[C@@H](CCCCNC(C)=O)C(=O)NCCCCCCCCCCCC [SZ167, N-[(1S)-5-acetamide-1-(dodecylcarbamoyl)pentyl]docosanamide] | tended to increase | tended to increase |
| CCCCCCCCCCCCCCCCNC(=O)N[C@@H](CCCNC(=N)N)C(=O)NCCCCCC.Cl [SZ168, (2S)-5-guanidino-2-(hexadecylcarbamoylamino)-N-hexyl-pentanamide hydrochloride] | tended to increase | tended to increase |
| CCCCCCCCCCCCCCCCOC(=O)N[C@@H](CCCNC(=N)N)C(=O)NCCCCCC.Cl [SZ169, Hexadecyl N-[(1S)-4-guanidino-1-(hexylcarbamoyl)butyl]carbamate hydrochloride] | tended to increase | tended to increase |
| CCCCCCCCCCCCCCCCCCCCCC(=O)N[C@@H](CCCCNC(=N)N)C(=O)NCCCCCC.Cl [SZ170, N-[(1S)-5-guanidino-1-(hexylcarbamoyl)pentyl]docosanamide hydrochloride] | tended to increase | tended to increase |
| CCCCCCCCCCCCCCCCCCCC(=O)N[C@@H](CCCNC(=N)N)C(=O)NCCCCCCCCCCCC.Cl [SZ180, N-[(1S)-1-(dodecylcarbamoyl)-4-guanidino-butyl]icosanamide hydrochloride] | significant enhancement | significant enhancement |
| CCCCCCCCCCCCCCCC(=O)N[C@@H](CCCNC(=N)N)C(=O)NCCCCCCCC.Cl [SZ181, N-[(1S)-4-guanidino-1-(octylcarbamoyl)butyl]hexadecanamide hydrochloride] | showed a tendency to increase | showed a tendency to increase |
| CCCCCCCCCCCCCCCCCC(=O)N[C@@H](CCCNC(=N)N)C(=O)NCCCCCCCC.Cl [SZ182, N-[(1S)-4-guanidino-1-(octylcarbamoyl)butyl]octadecanamide hydrochloride] | showed a tendency to increase | showed a tendency to increase |
| CCCCCCCCCCCCCCCCCCCC(=O)N[C@@H](CCCNC(=N)N)C(=O)NCCCCCCCC.Cl [SZ183, N-[(1S)-4-guanidino-1-(octylcarbamoyl)butyl]icosanamide hydrochloride] | significant enhancement | significant enhancement |
| CCCCCCCCCCCCCCCCCC(=O)N[C@@H](CCCCN)C(=O)NCCCCCCCC.Cl [SZ184, N-[(1S)-5-amino-1-(octylcarbamoyl)pentyl]octadecanamide hydrochloride] | showed a tendency to increase | showed a tendency to increase |
| CCCCCCCCCCCCCCCCCC(=O)N[C@@H](CCCCN)C(=O)NCCCCCCCCCCCC.Cl [SZ185, N-[(1S)-5-amino-1-(dodecylcarbamoyl)pentyl]octadecanamide hydrochloride] | significant enhancement | significant enhancement |
| CCCCCCCCCCCCNC(=O)[C@H](CCCNC(=N)N)NC(=O)OCCCCCCCCCCCC.Cl [SZ187, dodecyl N-[(1S)-1-(dodecylcarbamoyl)-4-guanidino-butyl]carbamate hydrochloride] | showed a tendency to increase | significant enhancement |

Reference: patent publication US20180311342A1, “IMMUNOSTIMULATING AGENT” (AJINOMOTO CO., INC., priority 2017, published 2018)
